For experiment [1], the target named is T1, Thromboxane Synthase (TXA₂ syn.) (Homo sapiens, UniProt P24557).
T1 construct: using microsomal fractions from human platelets as enzyme source; from tissue; host or cells: microsomal fraction of human platelets
T1 sequence (P24557 1-533): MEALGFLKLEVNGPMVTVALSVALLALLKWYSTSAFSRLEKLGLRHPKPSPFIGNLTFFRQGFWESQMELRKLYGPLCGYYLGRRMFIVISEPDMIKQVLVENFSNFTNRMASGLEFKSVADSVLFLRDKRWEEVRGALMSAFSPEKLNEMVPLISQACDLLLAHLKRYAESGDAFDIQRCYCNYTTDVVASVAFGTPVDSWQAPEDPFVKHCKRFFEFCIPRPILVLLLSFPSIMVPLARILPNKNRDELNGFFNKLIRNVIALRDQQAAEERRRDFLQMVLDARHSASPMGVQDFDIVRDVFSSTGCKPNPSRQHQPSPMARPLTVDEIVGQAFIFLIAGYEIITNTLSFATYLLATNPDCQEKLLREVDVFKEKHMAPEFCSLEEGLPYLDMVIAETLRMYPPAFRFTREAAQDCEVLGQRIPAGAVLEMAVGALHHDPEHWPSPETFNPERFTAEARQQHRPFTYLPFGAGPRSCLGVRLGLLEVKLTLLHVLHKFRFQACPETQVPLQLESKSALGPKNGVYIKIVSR
Briefly: TXA₂ Synthesis Inhibition (microsomal fractions from human platelets). In kind it is biochemical. The settings on record: human platelet microsomes, ¹⁴C-PGH₂ 10µM, 22° for 2 minutes; read-out: Inhibition of TXA₂ Synthetase IC₅₀. How it is done:
Thromboxane Synthase (TXA₂ syn.) inhibitory activity is measured by following the conversion of […] using microsomal fractions from human platelets as enzyme source. In the aqueous incubation medium, the TXA₂ decomposes rapidly into TXB₂. The amount of TXA₂ syn, is adjusted so that under the conditions of the assay approximately 80-90% of the substrate, PGH₂, is converted to product in control tubes. To prepare ¹⁴C-PGH₂, ¹⁴C-AA(50-60mCi/mmole) is incubated with sheep seminal vesicular gland microsomes for 1.5 min, at 37° and then the ¹⁴C-PGH₂ is extracted with diethylether, purified on columns of Sephadex LH-20 or silicic acid, and stored in acetone at -70°C. Incubations are done as follows, Sufficient ¹⁴C-PGH₂ to yield a final substrate concentration of 10µM (about 30,000 cpm) is added to the incubation tubes and then the acetone is removed under nitrogen. The tubes are placed in an ice bath and then 215 µl of ice cold phosphate buffered saline, 10 µl of ethanol (control) or of test drug in ethanol and 25 µl of the microsomal suspension are added with mixing in that order as rapidly as possible. The tubes are incubated at 22° for 2 minutes, the reaction is stopped and then the radioactive products and the unconverted PGH₂ are extracted and analyzed by thin layer chromatography. The amount of ¹⁴C-PGH₂ converted to products is analyzed by thin layer chromatography. The amount of ¹⁴C-PGH₂ converted to products was used as a measure of TXA₂ synthase activity. Inhibitors were tested initially at a concentration of 100 µM. IC₅₀ values were calculated by linear regression analysis of successive 10 fold dilutions of the test compound concentration.

For another experiment, the target named is T2, PAF Binding (Canis lupus familiaris, UniProt A0A8I3NSH0).
T2 construct: from tissue; host or cells: washed platelets from dog blood
T2 sequence (A0A8I3NSH0 1-343): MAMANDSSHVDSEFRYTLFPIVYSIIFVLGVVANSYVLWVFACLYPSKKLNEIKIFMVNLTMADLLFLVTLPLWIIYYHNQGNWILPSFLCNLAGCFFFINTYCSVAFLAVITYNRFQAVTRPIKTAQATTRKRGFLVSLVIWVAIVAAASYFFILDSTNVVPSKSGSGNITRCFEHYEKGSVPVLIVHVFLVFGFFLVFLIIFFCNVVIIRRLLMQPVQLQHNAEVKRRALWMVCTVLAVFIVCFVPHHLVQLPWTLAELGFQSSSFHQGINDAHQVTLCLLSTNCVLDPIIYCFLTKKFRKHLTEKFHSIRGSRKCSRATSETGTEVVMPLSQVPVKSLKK
Briefly: PAF binding assay (³H-PAF, dog platelets). The settings on record: washed dog platelets (2 x 10⁷ platelets), 10 minutes at room temperature, read-out: Inhibition of PAF Binding IC₅₀. How it is done: The binding assay was done in 400 µl polyethylene microcentrifuge tubes (Beckman) containing 50 µl of an oil mixture of 2 parts of Siliconol AR200 (Serva) and 1 part of Silicone Fluid (Arthur H. Thomas). Buffer, standards, or analogs (150 µl total volume) were added to the tubes. Radiolabelled ³H-PAF (50 µl) was then added to the tubes. The reaction was started by the addition of 50 µl of dog platelets (2 x 10⁷ platelets). The tubes were capped, inverted several times to mix, and incubated for 10 minutes at room temperature. The platelets were separated from the incubation mixture by centrifuging 1 minute in a Beckman Microfuge B centrifuge. The tip of the tubes were cut off, and the platelets were washed out of the tips with 200 µl of 50% methanol (Burdick and Jackson). Aquasol (NEN, 10 ml) was added and the radioactivity in the samples was determined using an LS 8100 Beckman liquid scintillation counter linked to a Techtran tape recorder. Data was processed through an in-house computer system. Alternatively, radioactivity was determined using a Searle Mark III liquid scintillation counter linked to a Iso-Data microprocessor.
Blood was collected from anesthesized or unanesthesized dogs into 50 ml plastic centrifuge tubes containing 3.8% sodium citrate as the anticoagulant (1 volume of citrate/9 volumes of blood). The red cells were removed by centrifugation for 15 minutes at 600 rpm (100-125 g) at room temperature. An aliquot of the supernatant platelet rich plasma (PRP) was saved for cell counting and the remainder was acidified to pH 6.5 with 0.15 M citric acid. The platelet pellet was obtained after a 10 minute centrifugation at 2000 rpm (1000 g) at room temperature. Washed platelets were prepared by resuspending the platelet pellet once with PBS containing 1 mM of EDTA, centrifuging as noted, and then resuspending the platelets in 0.1% of BSA/PBS. An aliquot of the washed platelets was counted. Platelets used for binding assays were diluted to 2 x 10⁷ platelets/assay tube (4 x 10⁸ platelets/ml). Platelet counting was done using a Royco Cell-Crit 921.

Experiment [2] has as its system PAF Induced Bronchoconstriction. Briefly: PAF Induced Bronchoconstriction Assay. In kind it is in vivo, guinea pigs. The settings on record: Cavia porcellus; 1mg/Kg iv, 1 minute pretreatment, guinea pig, PAF challenge 1.0µg/kg intravenous; percent inhibition, spread = standard error of the mean. How it is done:
Male guinea pigs (Hartley Strain, 400-500 g) were anesthetized with urethane (2 g/kg, i.p.). Each animals' trachea was cannulated and the guinea pigs were respirated using a Harvard small animal rodent respirator (3.0 cc stroke volume, 40 breaths per min.). Tracheal pressure was recorded from a cannula inserted in the trachea and connected to a Statham pressure Transducer.
The jugular vein was cannulated for administering compounds. Spontaneous breathing was arrested with succinylcholine (1.2 mg/kg, i.v.) administered 2 minutes prior to intravenous injection of platelet activating factor (PAF).
For the intravenous testing, the guinea pig is given a 5-minute pretreatment with propranolol at a dose of 0.1 mg/kg intravenously. The test compound is administered with a 1 minute pretreatment prior to intravenous challenge with PAF. The animal is then challenged with a 1.0µg/kg intravenous dose of PAF and the change in tracheal pressure is measured.
The change in tracheal pressure is determined by subtracting the steady state baseline achieved after administration of succinylcholine from the peak bronchoconstriction seen after challenge with PAF. The mean is calculated for each test compound and compared to the mean of the control animals to give the percent inhibition of bronchoconstriction. The standard error is calculated as the standard error of the mean.

Consider `O=C(C=C(c1ccccc1)c1ccccc1)NCCCCc1cccnc1` [3,3-Diphenyl-N-[4-(3-pyridinyl)butyl]-2-propenamide], for which, in experiment [1], the IC50 fell in the range of 100 to 1000 nM.
The same measure, in the same setting: then `O=C(CC=C(c1ccccc1)c1ccccc1)NCCCCc1cccnc1` [4,4-Diphenyl-N-[4-(3-pyridinyl)butyl]-3-butenamide], with 1000 nM.
For the molecule `O=C(CCC=C(c1ccccc1)c1ccccc1)NCCCCc1cccnc1` [5,5-Diphenyl-N-[4-(3-pyridinyl)butyl]-4-pentenamide], the IC50 in experiment [1] lay within 100 to 1000 nM.
Still for that read-out and setting: then `O=C(CCC=C(c1ccc(F)cc1)c1ccc(F)cc1)NCCCCc1cccnc1` [5,5-bis(4-fluorophenyl)-N-[4-(3-pyridinyl)butyl]-4-pentenamide], with 1000 to 10000 nM; and `COc1ccc(C(=CCCC(=O)NCCCCc2cccnc2)c2ccc(OC)cc2)cc1` [5,5-bis(4-methoxyphenyl)-N-[4-(3-pyridinyl)butyl]-4-pentenamide], with 1000 to 10000 nM.
Turning to `O=C(CCCC=C(c1ccccc1)c1ccccc1)NCCCCc1cccnc1` [6,6-Diphenyl-N-[4-(3-pyridinyl)butyl]-5-hexenamide], the IC50 in experiment [1] was 100 nM.
The same measure, in the same setting: as for `O=C(CCCCC=C(c1ccccc1)c1ccccc1)NCCCCc1cccnc1` [7,7-Diphenyl-N-[4-(3-pyridinyl)butyl]-6-heptenamide], the figure is 100 to 10000 nM; as for `O=C(CCCCCC=C(c1ccccc1)c1ccccc1)NCCCCc1cccnc1` [8,8-Diphenyl-N-[4-(3-pyridinyl)butyl]-7-octenamide], 100 to 1000 nM.
Take `COc1cccc(-c2c(/C=C/C(=O)NCCCCc3cccnc3)ccc3ccc(OC)cc23)c1` [(E)-3-[7-methoxy-1-(3-methoxyphenyl)-2-naphthalenyl]-N-[4-(3-pyridinyl)butyl]-2-propenamide]: the IC50 at PAF Binding is 8 nM. In experiment [2], the inhibition in vivo (commonly the change of the read-out against control, counted positive when it falls) at 1 mg/kg worked out at 62%.
As to `CCCCC1=C(/C=C/C(=O)N[C@H](C)CCCc2cccnc2)CCc2cc(OC)ccc21` [[R-(E)]-3-(1-Butyl-3,4-dihydro-6-methoxy-2-naphthalenyl)-N-[1-methyl-4-(3-pyridinyl)butyl]-2-propenamide], the inhibition in vivo at 1 mg/kg in experiment [2] is 94 ± 2%.
In the case of `CCCCc1c(/C=C/C(=O)N[C@H](C)CCCc2cccnc2)cc(OC)c2ccc(OC)cc12` [[R-(E)]-3-(1-Butyl-4,7-dimethoxy-2-naphthalenyl)-N-[1-methyl-4-(3-pyridinyl)butyl]-2-propenamide], the IC50 on PAF Binding came out at 3 nM. Besides, the inhibition in vivo at 1 mg/kg in experiment [2] was determined as 80%.
`CCCCc1c(/C=C/C(=O)N[C@H](C)CCCc2cccnc2)cc(OC)c2ccccc12` [[R-(E)]-3-(1-Butyl-4-methoxy-2-naphthalenyl)-N-[1-methyl-4-(3-pyridinyl)butyl]-2-propenamide]: the IC50 at PAF Binding worked out at 1 nM. In experiment [2], the inhibition in vivo at 1 mg/kg is 90%.
Take `CCCCc1c(/C=C/C(=O)N[C@H](C)CCCc2cccnc2)ccc2c(OC)cccc12` [[R-(E)]-3-(1-Butyl-5-methoxy-2-naphthalenyl)-N-[1-methyl-4-(3-pyridinyl)butyl]-2-propenamide]: the IC50 on PAF Binding amounted to 6 nM. Moreover, the inhibition in vivo at 1 mg/kg in experiment [2] was found to be 50%.
In the case of `CCCCc1c(/C=C/C(=O)N[C@H](C)CCCc2cccnc2)ccc2cc(OC)ccc12` [[R-(E)]-3-(1-Butyl-6-methoxy-2-naphthalenyl)-N-[1-methyl-4-(3-pyridinyl)butyl]-2-propenamide], the IC50 at PAF Binding was 7 nM. In addition, the inhibition in vivo at 1 mg/kg in experiment [2] was 95 ± 1%.
As for `CCCCc1c(/C=C/C(=O)N[C@H](C)CCCc2cccnc2)ccc2ccc(OC)cc12` [[R-(E)]-3-(1-Butyl-7-methoxy-2-naphthalenyl)-N-[1-methyl-4-(3-pyridinyl)butyl]-2-propenamide], the IC50 on PAF Binding is 15 nM.
`CCCCCc1c(/C=C/C(=O)N[C@H](C)CCCc2cccnc2)sc2cc(OC)ccc12` [[R-(E)]-3-(6-Methoxy-3-pentylbenzo-[b]thien-2-yl)-N-[1-methyl-4-(3-pyridinyl)butyl]-2-propenamide]: the IC50 on PAF Binding is 24 nM. Further, in experiment [2], the inhibition in vivo at 1 mg/kg came to 98%.
`CCCCCc1c(/C=C/C(=O)N[C@H](C)CCCc2cccnc2)oc2cc(OC)ccc12` [[R-(E)]-3-(6-Methoxy-3-pentylbenzofuran-2-yl)-N-[1-methyl-4-(3-pyridinyl)butyl]-2-propenamide]: the inhibition in vivo at 1 mg/kg in experiment [2] was found to be 89%.
For `CCCCCC1=C(/C=C/C(=O)N[C@H](C)CCCc2cccnc2)Cc2cc(OC)ccc21` [[R-(E)]-3-(6-methoxy-3-pentylindene-2-yl)-N-[1-methyl-4-(3-pyridinyl)butyl]-2-propenamide], at PAF Binding, the IC50 is 33 nM. Further, the inhibition in vivo at 1 mg/kg in experiment [2] stood at 96%.
Turning to `COc1ccc(C2=C(/C=C/C(=O)N[C@H](C)CCCc3cccnc3)CCc3cc(OC)ccc32)cc1` [[R-(E)]-3-[3,4-Dihydro-6-methoxy-1-(4-methoxyphenyl)-2-naphthalenyl]-N-[1-methyl-4-(3-pyridinyl)butyl]-2-propenamide], the IC50 on PAF Binding was determined as 30 nM. Moreover, the inhibition in vivo at 1 mg/kg in experiment [2] turned out to be 95 ± 2%.
Turning to `COc1ccc(-c2c(/C=C/C(=O)N[C@H](C)CCCc3cccnc3)ccc3cc(OC)ccc23)cc1` [[R-(E)]-3-[6-Methoxy-1-(4-methoxyphenyl)-2-naphthalenyl]-N-[1-methyl-4-(3-pyridinyl)butyl]-2-propenamide], at PAF Binding, the IC50 came out at 55 nM. Further, in experiment [2], the inhibition in vivo at 1 mg/kg came out at 92%.

For the origin of these results see patent EP0298466A2, “Substituted alkene carboxylic acid amides and derivatives” (F. HOFFMANN-LA ROCHE AG, priority 1987, dated 1989).
